Tests used:
human TLR7 = human TLR7 (Homo sapiens (Human), UniProt Q9NYK1); test: HEK-Blue TLR7 reporter assay for TLR7 agonist activity; assay type: cell-based; details: HEK-Blue TLR7 cells, SEAP reporter, 18 h treatment; read-out: TLR7 Agonism (EC50)
Procedure: This example describes a method for assaying TLR7 agonist activity of the compounds disclosed in this specification.
HEK-Blue™ TLR7 cells were added to each well of a 384-well tissue-culture plate (15,000 cells per well) and incubated 16-18 h at 37° C., 5% CO2. Compounds (100 nl) were dispensed into wells containing the HEK-Blue™ TLR cells and the treated cells were incubated at 37° C., 5% CO2. After 18 h treatment ten microliters of freshly-prepared Quanti-Blue™ reagent (Invivogen) was added to each well, incubated for 30 min (37° C., 5% CO2) and SEAP levels measured using an Envision plate reader (OD=620 nm).

interleukin 6 (IL-6) = test: IL-6 induction in human whole blood (AlphaLISA); assay type: cell-based; details: 37° C., 20 h
Procedure: This example describes a method for assaying interleukin 6 induction by compounds disclosed in this specification.
Compounds diluted in DMSO were transferred to individual wells of a Matrix Technologies clear, V-bottom 384-well plate using ECHO acoustic liquid handling technology (25 nL per well). Human whole-blood samples (25 uL) were added to each well using a CyBio FeliX liquid handling instrument. The plate was shaken on a plate shaker for three min before incubating the reaction mixtures at 37° C. for 20 h. Basel RPMI 1640 medium (supplemented with L-glutamine) was then added to each well (25 uL per well) prior to liberating plasma from each sample by centrifugation (450×g, 5 min, ambient temperature). Treated plasma samples (3 uL) were subsequently transferred to individual wells of a white, shallow, 384-well ProxiPlate (Perkin Elmer) using the FeliX liquid handling instrument and their interleukin 6 levels were measured using AlphaLISA technology as described by the manufacturer, PerkinElmer. Data analyses software was used to determine compound EC50 values where the baseline was established using average DMSO values and 100% induction established using reference compound values at the highest concentration tested. EC50's can be determined with software such as Graphpad Prism™.

IFN-α = details: fold lower potency vs corresponding purine-8-one compound; cited from earlier work

Sequence of human TLR7 (Q9NYK1 27-1049): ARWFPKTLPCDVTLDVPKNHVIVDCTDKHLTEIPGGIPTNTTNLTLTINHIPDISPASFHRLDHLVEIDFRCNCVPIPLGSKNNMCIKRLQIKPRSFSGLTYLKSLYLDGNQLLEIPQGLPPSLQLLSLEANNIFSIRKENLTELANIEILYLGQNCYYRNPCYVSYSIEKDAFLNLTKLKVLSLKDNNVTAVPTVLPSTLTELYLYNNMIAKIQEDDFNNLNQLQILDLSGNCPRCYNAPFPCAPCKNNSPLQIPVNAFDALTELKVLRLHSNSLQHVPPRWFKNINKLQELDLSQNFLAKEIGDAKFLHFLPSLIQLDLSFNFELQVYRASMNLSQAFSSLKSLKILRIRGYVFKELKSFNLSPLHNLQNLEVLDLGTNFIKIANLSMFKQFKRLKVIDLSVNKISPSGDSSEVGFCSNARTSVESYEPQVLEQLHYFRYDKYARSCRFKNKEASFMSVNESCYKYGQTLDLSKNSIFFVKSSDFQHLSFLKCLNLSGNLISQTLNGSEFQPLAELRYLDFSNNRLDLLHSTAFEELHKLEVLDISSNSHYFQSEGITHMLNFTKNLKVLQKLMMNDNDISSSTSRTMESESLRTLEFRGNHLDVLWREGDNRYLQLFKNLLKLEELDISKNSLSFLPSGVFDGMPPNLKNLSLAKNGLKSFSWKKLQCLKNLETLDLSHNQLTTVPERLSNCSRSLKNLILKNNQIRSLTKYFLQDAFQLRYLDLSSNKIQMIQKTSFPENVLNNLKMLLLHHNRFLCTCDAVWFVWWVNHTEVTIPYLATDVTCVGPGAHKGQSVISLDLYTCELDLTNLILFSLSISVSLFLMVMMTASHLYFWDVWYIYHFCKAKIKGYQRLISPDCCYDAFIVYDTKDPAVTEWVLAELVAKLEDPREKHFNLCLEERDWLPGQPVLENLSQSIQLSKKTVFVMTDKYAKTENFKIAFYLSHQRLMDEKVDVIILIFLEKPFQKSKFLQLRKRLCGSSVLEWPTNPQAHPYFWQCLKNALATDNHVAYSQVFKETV

Row | Structure (SMILES) | EC50 (human TLR7) | EC50 (interleukin 6 (IL-6)) | potency less than that of the corresponding purine-8-one compound, as measured by IFN-α induction (IFN-α)
1 | CCCCOc1nc(N)c2nc(O)n(Cc3cnc(CNCC4COC4)cn3)c2n1 [Ia-02] | 11200 nM | – | –
2 | CCCCOc1nc(N)c2nc(O)n(Cc3cnc(CNC4CCC4)cn3)c2n1 [Ia-08] | 24 nM | 220 nM | –
3 | CCCCOc1nc(N)c2nc(O)n(Cc3ccc(CNCc4ccccc4)cn3)c2n1 [Ib-06] | – | 190 nM | –
4 | CCCCOc1nc(N)c2nc(O)n(Cc3ccc(CNC4CC4)cn3)c2n1 [Ib-03] | 18 nM | 62 nM | –
5 | CCCCOc1nc(N)c2nc(O)n(Cc3cnc(CNC4COC4)cn3)c2n1 [Ia-07] | 490 nM | 1000 nM | –
6 | CCCCOc1nc(N)c2nc(O)n(Cc3ccc(CNCCCN)nc3)c2n1 [Ic-05] | 14 nM | 28 nM | –
7 | CCCCOc1nc(N)c2nc(O)n(Cc3cnc(CNC)cn3)c2n1 [Ia-10] | 290 nM | 570 nM | –
8 | CCCCOc1nc(N)c2nc(O)n(Cc3ccc(CNCc4ccc(N)cc4)nc3)c2n1 [Ic-07] | 11 nM | 20 nM | –
9 | CCCCOc1nc(N)c2nc(O)n(Cc3cnc(CNCc4ccncc4)cn3)c2n1 [Ia-01] | 330 nM | 1000 nM | –
10 | CCCCOc1nc(N)c2nc(O)n(Cc3ccc(CN4CCC(CN)CC4)nc3)c2n1 [Ic-13] | – | 11 nM | –
11 | CCCCOc1nc(N)c2nc(O)n(Cc3ccc(CNCCCOCCOCCOCCCNC(=O)OC(C)(C)C)cn3)c2n1 [Ib-08] | 47 nM | 330 nM | –
12 | CCCCOc1nc(N)c2nc(O)n(Cc3cnc(CNC(C)C)cn3)c2n1 [Ia-06] | 83 nM | 210 nM | –
13 | CCCCNCc1ccc(Cn2c(O)nc3c(N)nc(OCCCC)nc32)nc1 [Ib-01] | 15 nM | 77 nM | –
14 | CCCCOc1nc(N)c2nc(O)n(Cc3ccc(CNC4CCCC4)nc3)c2n1 [Ic-11] | – | 23 nM | –
15 | CCCCOc1nc(N)c2nc(O)n(Cc3ccc(CNCCOC)nc3)c2n1 [Ic-02] | 9 nM | – | –
16 | CCCCOc1nc(N)c2nc(O)n(Cc3ccc(CNCCCN)cn3)c2n1 [Ib-05] | 62 nM | 260 nM | –
17 | CCCCOc1nc(N)c2nc(O)n(Cc3cnc(CNCc4ccccc4)cn3)c2n1 [Ia-03] | 180 nM | 1000 nM | –

Row | Structure (SMILES) | EC50 (human TLR7) | EC50 (interleukin 6 (IL-6)) | potency less than that of the corresponding purine-8-one compound, as measured by IFN-α induction (IFN-α)
18 | CCCCOc1nc(N)c2nc(O)n(Cc3ccc(CNCc4ccccc4)nc3)c2n1 [Ic-06] | – | 180 nM | –
19 | CCCCOc1nc(N)c2nc(O)n(Cc3cnc(CNCCOC)cn3)c2n1 [Ia-04] | 310 nM | 600 nM | –
20 | CCCCOc1nc(N)c2c(n1)N(Cc1cccc(CN3CCCC3)c1)CC(=O)N2 [Vesatolimod, vesatolimod] | – | – | 100 ×
21 | CCCCOc1nc(N)c2nc(O)n(Cc3ccc(CNC4CCC4)cn3)c2n1 [Ib-04] | 12 nM | 78 nM | –
22 | CCCCNCc1ccc(Cn2c(O)nc3c(N)nc(OCCCC)nc32)cn1 [Ic-01] | 4.8 nM | 26 nM | –
23 | CCCCOc1nc(N)c2nc(O)n(Cc3ccccc3)c2n1 [Compound B, reference compound] | 470 nM | – | –
24 | CCCCOc1nc(N)c2nc(O)n(Cc3ccc(CNCc4ccc(N)cc4)cn3)c2n1 [Ib-07] | 41 nM | 100 nM | –
25 | CCCCOc1nc(N)c2nc(O)n(Cc3ccc(CNCCOC)cn3)c2n1 [Ib-02] | 28 nM | 110 nM | –
26 | CCCCCCNCc1ccc(Cn2c(O)nc3c(N)nc(OCCCC)nc32)cn1 [Ic-09] | – | 37 nM | –
27 | CCCCOc1nc(N)c2nc(O)n(Cc3ccc(CN4CCC(N)CC4)nc3)c2n1 [Ic-12] | – | 13 nM | –
28 | CCCCOc1nc(N)c2nc(O)n(Cc3ccc(CNCCC)nc3)c2n1 [Ic-10] | 6.1 nM | 27 nM | –
29 | CCCCOc1nc(N)c2nc(O)n(Cc3cnc(CO)cn3)c2n1 [Compound 6] | 288 nM | – | –
30 | CCCCNCc1cnc(Cn2c(O)nc3c(N)nc(OCCCC)nc32)cn1 [Ia-09] | 89 nM | 420 nM | –
31 | CCCCOc1nc(N)c2nc(O)n(Cc3cnc(CNC4CC4)cn3)c2n1 [Ia-05] | 140 nM | 360 nM | –
32 | CCCCOc1nc(N)c2nc(O)n(Cc3ccc(CNC4CC4)nc3)c2n1 [Ic-03] | 5.3 nM | 14 nM | –
33 | CCCCOc1nc(N)c2nc(O)n(Cc3ccc(CNCCCOCCOCCOCCCNC(=O)OC(C)(C)C)nc3)c2n1 [Ic-08] | 23 nM | 150 nM | –
